Reference: patent US4670260A, “Antibiotic for animal feeds” (Bayer Aktiengesellschaft, priority 1984, dated 1987)

The compounds below were run on Streptomyces strain BA 9 (assay: Growth inhibition of producing strain BA 9 by antibiotics). Details: 5 μg; ISP medium No. 1+, 28° C., 2 d.
Assay type: cell-based, Streptomyces sp.
Experimental: The optimum temperature is 28° (ISP medium No. 1^+, 5 d). No growth was observed on ISP medium No. 7 (tyrosine agar). Melanin is formed on ISP medium No. 6. The growth is inhibited by chloramphenicol (10 μg); erythromycin (10 μg), sulphafurazole (100 μg), streptomycin (10 μg), tetracycline (10 μg), chephaloridine (5 μg) fusidic acid (10 μg), lincomycin (10 μg) and novobiocib (5 μg) (ISP medium No. 1^+, 28° C., 2 d). Growth was good (substrate mycelium) on ISP media Nos. 3, 4 and 5, with sparse formation of aerial mycelium on ISP medium Nos. 3 and 5.

Row | Compound | growth inhibition of strain BA 9
1 | O=C(Cc1cccs1)N[C@@H]1C(=O)N2C(C(=O)[O-])=C(C[n+]3ccccc3)CS[C@H]12 [chephaloridine] | inhibited
2 | CO[C@@H]1[C@@H](OC(N)=O)[C@@H](O)[C@H](Oc2ccc3c(O)c(NC(=O)c4ccc(O)c(CC=C(C)C)c4)c(=O)oc3c2C)OC1(C)C [novobiocib] | inhibited

Same assay, conditions: 10 μg; ISP medium No. 1+, 28° C., 2 d

Row | Compound | growth inhibition of strain BA 9
3 | O=C(N[C@H](CO)[C@H](O)c1ccc([N+](=O)[O-])cc1)C(Cl)Cl [chloramphenicol] | inhibited
4 | CC[C@H]1OC(=O)[C@H](C)[C@@H](O[C@H]2C[C@@](C)(OC)[C@@H](O)[C@H](C)O2)[C@H](C)[C@@H](O[C@@H]2O[C@H](C)C[C@H](N(C)C)[C@H]2O)[C@](C)(O)C[C@@H](C)C(=O)[C@H](C)[C@@H](O)[C@]1(C)O [erythromycin] | inhibited
5 | CC(=O)O[C@H]1C[C@@]2(C)[C@@H](C[C@@H](O)[C@H]3[C@@]4(C)CC[C@@H](O)[C@@H](C)[C@@H]4CC[C@@]32C)/C1=C(\CCC=C(C)C)C(=O)O [fusidic acid] | inhibited
6 | CCC[C@@H]1C[C@@H](C(=O)N[C@@H]([C@H]2O[C@H](SC)[C@H](O)[C@@H](O)[C@H]2O)[C@@H](C)O)N(C)C1 [lincomycin] | inhibited
7 | [H]/N=C(/N)N[C@H]1[C@H](O)[C@@H](O)[C@H](O[C@@H]2O[C@@H](C)[C@](O)(C=O)[C@H]2O[C@@H]2O[C@@H](CO)[C@H](O)[C@@H](O)[C@@H]2NC)[C@@H](N/C(N)=N\[H])[C@@H]1O [streptomycin] | inhibited
8 | CN(C)C1C(=O)C(C(N)=O)=C(O)C2(O)C(=O)C3=C(O)c4c(O)cccc4C(C)(O)C3CC12 (stereo not drawn) [tetracycline] | inhibited

Same assay, conditions: 100 μg; ISP medium No. 1+, 28° C., 2 d

Row | Compound | growth inhibition of strain BA 9
9 | Cc1noc(NS(=O)(=O)c2ccc(N)cc2)c1C [sulphafurazole] | inhibited
